# Reference: patent US11141413B2, “Method of treating renal cell carcinoma using N-(4-(6,7-dimethoxyquinolin-4-yloxy)phenyl)-N′-(4-fluorophenyl)cyclopropane-1,1-dicarboxamide, (2S)-hydroxybutanedioate” (Exelixis, Inc., priority 2016, dated 2021)
# System: patients with advanced renal cell carcinoma
# Assay: METEOR quality of life (FKSI-19, FKSI-DRS, EQ-5D-5L) and time to deterioration
# Type: in vivo, human
# Conditions: for EQ-VAS, Cabo vs Evero Intercept (change at Week 4) / EQ-VAS, Cabo vs Evero Slope / FKSI-19 Total, Cabo vs Evero Intercept (change at Week 4) / FKSI-19 Total, Cabo vs Evero Slope / FKSI-DRS (9-item), Cabo vs Evero Intercept (change at Week 4) / FKSI-DRS (9-item), Cabo vs Evero Slope: growth curve analysis
# Description: Patients completed the 19-item Functional Assessment of Cancer Therapy-Kidney Symptoms Index (FKSI-19) and the 5-level EuroQoL-5 Dimensions (EQ-5D-5L) questionnaires at baseline and throughout the study. The 9-item FKSI-Disease Related Symptoms (FKSI-DRS) is a subset of FKSI-19. Data were summarized descriptively and by mixed-effects repeated-measures analysis (clinically relevant difference was an effect size ≥0.3). Time to deterioration (TTD) was defined as earlier of death, radiographic progressive disease or ≥4-point decrease from baseline in FKSI-DRS.
# QoL was measured by using two validated patient self-reported instruments: the Functional Assessment of Cancer Therapy-Kidney Symptom Index-19 item (FKSI-19) and EuroQol Group's EQ-5D-5L questionnaires. Patients were required to complete the QoL questionnaires before any assessments at each clinic visit prior to the first dose, every 4 weeks through Week 25, every 8 weeks thereafter for the first year, then every 12 weeks thereafter. The QoL assessments were conducted per protocol prior to the patient knowing the results of their next tumor assessment. These assessments were performed regardless of whether study treatment was given, reduced, interrupted, or discontinued until the date of the last tumor imaging assessment. Questionnaires were provided on paper in the patient's own language.
# The FKSI-19 instrument is a 19-item self-reported questionnaire with a total score and four subscales that assesses disease-related symptoms (DRS), treatment side effects, and function/well-being associated with advanced kidney cancer. It queries symptom severity and interference in activity and general health perceptions (Rao D, Butt Z, Rosenbloom S, Robinson D Jr, Von Roenn J, Kuzel T M, Cella D. A Comparison of the Renal Cell Carcinoma-Symptom Index (RCC-SI) and the Functional Assessment of Cancer Therapy-Kidney Symptom Index (FKSI). J Pain Symptom Manage. 2009; 38(2):291-8; Rothrock N E, Jensen S E, Beaumont J L, Abernethy A P, Jacobsen P B, Syrjala K, Cella D. Development and initial validation of the NCCN/FACT symptom index for advanced kidney cancer. Value Health. 2013; 16(5):789-96). The FKSI-19 comprises four sub-scales (DRS-Physical, DRS-Emotional, Treatment Side Effects, and Function/Well Being; Table 2.1). Each of the items is scored on a 5-point scale from 0 (not at all) to 4 (very much). Higher FKSI-19 scores indicate improvement. The FKSI-19 ensures content validity congruent with FDA Guidance (FDA. Guidance for Industry. Patient-Reported Outcome Measures: Use in Medical Product Development to Support Labeling Claims. December 2009). and was developed from a previous 9-item DRS version (FKSI-DRS; lack of energy, pain, losing weight, fatigue, short of breath, fevers, bone pain, coughing, blood in urine). The FKSI-19 includes selected treatment side effects that are important to the patient and physician.
# The standardized measure of health status EQ-5D-5L, developed by the EuroQol, was also used in this study in order to measure generic health status (Herdman M, Gudex C, Lloyd A, Janssen M, Kind P, Parkin D, t al. Development and preliminary testing of the new five-level version of EQ-5D (EQ-5D-5L). Qual Life Res. 2011; 20(10):1727-36). It comprises five functional and symptom dimensions: mobility, self-care, usual activities, pain/discomfort, and anxiety/depression. Levels indicate increasing severity from Level 1 (no problem) to Levels 2 through 5 (mild problem to extreme problem). The digits from the 5 dimensions were converted into a single population-based index value normalized across the nine countries in the study for which index value sets were available (van Hout B, Janssen M F, Feng Y S, Kohlmann T, Busschbach J, Golicki D, et al. Interim scoring for the EQ-5D-5L: mapping the EQ-5D-5L to EQ-5D-3L value sets. Value Health. 2012; 15(5):708-15). Index values range from 0 to 1 and a higher index score indicates better health. […]
# [1] = FKSI-19 item, repeated measures, ITT
# [2] = FKSI-19 subscale, repeated measures, ITT
# [3] = bone metastases per IRC at baseline: No
# [4] = bone metastases per IRC at baseline: Yes
# [5] = cabozantinib vs everolimus, positive favors cabozantinib
# [6] = Late Dropout (Week 41 or later)
smiles,measurement,setting,value
COc1cc2nccc(Oc3ccc(NC(=O)C4(C(=O)Nc5ccc(F)cc5)CC4)cc3)c2cc1OC [cabozantinib],"Able to work, LSMean change from baseline",[1],−0.151
same,"Blood in my urine, LSMean change from baseline",[1],0.005
same,"Bone pain, LSMean change from baseline",[1],0.049
same,"Content with quality life, LSMean change from baseline",[1],−0.035
same,"Coughing, LSMean change from baseline",[1],0.237
same,"Diarrhea, LSMean change from baseline",[1],−1.28
same,"Enjoy life, LSMean change from baseline",[1],−0.017
same,"Fatigued, LSMean change from baseline",[1],−0.325
same,"Fevers, LSMean change from baseline",[1],0.056
same,"Good appetite, LSMean change from baseline",[1],−0.166
same,"Lack of energy, LSMean change from baseline",[1],−0.244
same,"Losing weight, LSMean change from baseline",[1],−0.533
same,"Nausea, LSMean change from baseline",[1],−0.236
same,"Pain, LSMean change from baseline",[1],0.125
same,"Short of breath, LSMean change from baseline",[1],0.029
same,"Side effects of treatment, LSMean change from baseline",[1],−0.850
same,"Sleeping well, LSMean change from baseline",[1],0.018
same,"Weak all over, LSMean change from baseline",[1],−0.281
same,"Worry condition worsen, LSMean change from baseline",[1],0.398
same,"DRS-Emotional, LSMean change from baseline",[2],0.398
same,"DRS-Physical, LSMean change from baseline",[2],−1.093
same,"Function/Well-Being, LSMean change from baseline",[2],−0.230
same,"Treatment Side Effects, LSMean change from baseline",[2],−2.416
same,Median TTD,[3],5.5 mo
same,"TTD HR, cabozantinib vs everolimus",[3],0.69
same,Median TTD,[4],5.6 mo
same,"TTD HR, cabozantinib vs everolimus",[4],0.49
same,"Able to work, Effect Size",[5],−0.037
same,"Blood in my urine, Effect Size",[5],0.023
same,"Bone pain, Effect Size",[5],−0.008
same,"Content with quality life, Effect Size",[5],−0.014
same,"Coughing, Effect Size",[5],0.28
same,"DRS-Emotional, Effect Size",[5],0.004
same,"DRS-Physical, Effect Size",[5],0.046
same,"EQ-VAS, Effect Size",[5],−0.003
same,"Enjoy life, Effect Size",[5],−0.002
same,"FKSI-19 (19-item) Total Score, Effect Size",[5],−0.13
same,"FKSI-DRS (9-item), Effect Size",[5],0.087
same,"Fatigued, Effect Size",[5],−0.017
same,"Fevers, Effect Size",[5],0.13
same,"Function/Well-Being, Effect Size",[5],−0.019
same,"Good appetite, Effect Size",[5],−0.23
same,"Lack of energy, Effect Size",[5],−0.033
same,"Losing weight, Effect Size",[5],−0.21
same,"Pain, Effect Size",[5],0.052
same,"Side effects of treatment, Effect Size",[5],−0.24
same,"Sleeping well, Effect Size",[5],0.12
same,"Weak all over, Effect Size",[5],−0.015
same,"Worry condition worsen, Effect Size",[5],0.004
same,"EQ-VAS, Cabo vs Evero Intercept (change at Week 4)",Early Dropout (before Week 24),−1.933
same,"EQ-VAS, Cabo vs Evero Slope",Early Dropout (before Week 24),0.498
same,"FKSI-19 Total, Cabo vs Evero Intercept (change at Week 4)",Early Dropout (before Week 24),0.241
same,"FKSI-19 Total, Cabo vs Evero Slope",Early Dropout (before Week 24),0.131
same,"FKSI-DRS (9-item), Cabo vs Evero Intercept (change at Week 4)",Early Dropout (before Week 24),1.445
same,"FKSI-DRS (9-item), Cabo vs Evero Slope",Early Dropout (before Week 24),0.037
same,"EQ-VAS, Cabo vs Evero Intercept (change at Week 4)",[6],−4.749
same,"EQ-VAS, Cabo vs Evero Slope",[6],0.134
same,"FKSI-19 Total, Cabo vs Evero Intercept (change at Week 4)",[6],−5.141
same,"FKSI-19 Total, Cabo vs Evero Slope",[6],0.082
same,"FKSI-DRS (9-item), Cabo vs Evero Intercept (change at Week 4)",[6],−1.307
same,"FKSI-DRS (9-item), Cabo vs Evero Slope",[6],0.046
same,"EQ-VAS, Cabo vs Evero Intercept (change at Week 4)",Median Dropout (Weeks 25-33),−0.352
same,"EQ-VAS, Cabo vs Evero Slope",Median Dropout (Weeks 25-33),0.146
same,"FKSI-19 Total, Cabo vs Evero Intercept (change at Week 4)",Median Dropout (Weeks 25-33),−2.003
same,"FKSI-19 Total, Cabo vs Evero Slope",Median Dropout (Weeks 25-33),0.141
same,"FKSI-DRS (9-item), Cabo vs Evero Intercept (change at Week 4)",Median Dropout (Weeks 25-33),−0.313
same,"FKSI-DRS (9-item), Cabo vs Evero Slope",Median Dropout (Weeks 25-33),0.094
same,"TTD HR, cabozantinib vs everolimus","overall ITT, unstratified",0.65
same,Median time to deterioration (TTD),"overall ITT, earlier of death, rPD, ≥4-point FKSI-DRS decrease from baseline",5.5 mo
same,"EQ-VAS, LSMean change from baseline","repeated measures, ITT",−1.32
same,"FKSI-19 (19-item) Total Score, LSMean change from baseline","repeated measures, ITT",−3.483
same,"FKSI-DRS (9-item), LSMean change from baseline","repeated measures, ITT",−0.52
